Test results from US20170240556A1, “BIFLUORODIOXALANE-AMINO-BENZIMIDAZOLE KINASE INHIBITORS FOR THE TREATMENT OF CANCER, AUTOIMMUNEINFLAMMATION AND CNS DISORDERS” (4SC DISCOVERY GMBH, priority 2012, published 2017).
pIC50: −log10 of the molar value.

How the values were obtained:
[1] = biological target: Casein kinase 1 delta (CSKN1D) (Homo sapiens, UniProt P48730); test: Casein kinase assay, CK1 delta; type: biochemical; conditions: recombinant CSKN1D 5 nM, ATP 10 μM
[2] = biological target: Casein kinase 1 epsilon (CSKN1E) (Homo sapiens, UniProt P49674); test: Casein kinase assay, CK1 epsilon; type: biochemical; conditions: recombinant CSKN1E 30 nM, ATP 10 μM
Procedure: The recombinant protein Casein kinase 1 delta (CSKN1D) was added to the substrate solution in a concentration of 5 nM and gently mixed. Dilution series in of compounds of the present invention in DMSO were added to the reaction mixture, followed after 20 min by addition of a mixture of ATP and ^33P-ATP (specific activity 0.01 μCi/μl final) to a final concentration of 10 μM. Reactions were carried out at 25° C. for 120 min, followed by spotting the reactions onto P81 ion exchange filter paper. Unbound phosphate was removed by washing of the filters in 0.75% phosphoric acid. […] IC50 values and curve fits were obtained using the program Prism® (Graph Pad Software).
The above assay was also used to determine the inhibitory capacity of the compounds of the present invention on Casein Kinase 1 epsilon, wherein instead of CSKN1D, recombinant protein Casein kinase 1 epsilon (CSKN1E) was added to the substrate solution in a concentration of 30 nM and gently mixed.

Sequence of Casein kinase 1 delta (CSKN1D) (P48730 whole entry): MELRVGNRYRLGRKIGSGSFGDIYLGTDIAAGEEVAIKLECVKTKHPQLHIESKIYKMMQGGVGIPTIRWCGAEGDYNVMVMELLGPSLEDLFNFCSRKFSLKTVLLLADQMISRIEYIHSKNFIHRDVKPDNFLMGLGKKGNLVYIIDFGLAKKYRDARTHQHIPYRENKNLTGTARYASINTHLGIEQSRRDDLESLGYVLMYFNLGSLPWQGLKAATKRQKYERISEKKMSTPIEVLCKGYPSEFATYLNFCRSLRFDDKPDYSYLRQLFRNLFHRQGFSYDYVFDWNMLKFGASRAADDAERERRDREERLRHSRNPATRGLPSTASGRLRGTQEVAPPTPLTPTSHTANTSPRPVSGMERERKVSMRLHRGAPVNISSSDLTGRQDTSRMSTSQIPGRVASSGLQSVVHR
Sequence of Casein kinase 1 epsilon (CSKN1E) (P49674 whole entry): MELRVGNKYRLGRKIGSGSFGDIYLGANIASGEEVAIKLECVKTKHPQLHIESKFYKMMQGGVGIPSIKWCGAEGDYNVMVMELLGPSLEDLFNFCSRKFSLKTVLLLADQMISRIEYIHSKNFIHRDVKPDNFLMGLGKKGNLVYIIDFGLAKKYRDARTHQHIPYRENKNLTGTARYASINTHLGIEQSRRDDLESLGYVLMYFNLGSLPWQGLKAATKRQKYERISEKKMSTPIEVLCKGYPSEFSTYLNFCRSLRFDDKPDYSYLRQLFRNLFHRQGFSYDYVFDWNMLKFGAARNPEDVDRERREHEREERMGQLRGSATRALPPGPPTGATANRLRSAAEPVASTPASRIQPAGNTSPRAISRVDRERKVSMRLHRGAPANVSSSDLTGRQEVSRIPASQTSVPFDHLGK

Structure (SMILES) | pIC50 [1] | pIC50 [2]
Cc1cc(C(=O)Nc2nc3cc4c(cc3[nH]2)OC(F)(F)O4)c(C)s1 [Compound 28, N-(2,2-difluoro-5H-[1,3]dioxolo[4′,5′:4,5]benzo[1,2-d]imidazole-6-yl)-2,5-dimethylthiophene-3-carboxamide] | 6.00 to 6.70 | 6.00 to 6.70
Nc1ncc(Br)nc1C(=O)Nc1nc2cc3c(cc2[nH]1)OC(F)(F)O3 [Compound 22, 2-amino-6-bromo-N-(2,2-difluoro-5H-[1,3]dioxolo[4′,5′:4,5]benzo[1,2-d]imidazol-6-yl)pyrazine-2-carboxamide] | 6.00 to 6.70 | < 6.00
O=C(Nc1nc2cc3c(cc2[nH]1)OC(F)(F)O3)c1ccccc1OC(F)(F)F [Compound 47, N-(2,2-difluoro-5H-[1,3]dioxolo[4′,5′:4,5]benzo[1,2-d]imidazol-6-yl)-2-(trifluoromethoxy)benzamide] | 6.00 to 6.70 | < 6.00
O=C(Nc1nc2cc3c(cc2[nH]1)OC(F)(F)O3)c1coc(N2CCOCC2)n1 [Compound 24, N-(2,2-difluoro-5H-[1,3]dioxolo[4′,5′:4,5]benzo[1,2-d]imidazol-6-yl)-2-morpholinooxazole-4-carboxamide] | 6.00 to 6.70 | 6.00 to 6.70
Nc1sccc1C(=O)Nc1nc2cc3c(cc2[nH]1)OC(F)(F)O3 [Compound 79, 2-amino-N-(2,2-difluoro-5H-[1,3]dioxolo[4′,5′:4,5]benzo[1,2-d]imidazol-6-yl)thiophene-3-carboxamide] | 6.00 to 6.70 | 6.00 to 6.70
O=C(Nc1nc2cc3c(cc2[nH]1)OC(F)(F)O3)c1csc(Nc2ccc(OC(F)(F)F)cc2)n1 [Compound 23, N-(2,2-difluoro-5H-[1,3]dioxolo[4′,5′:4,5]benzo[1,2-d]imidazol-6-yl)-2-((4-(trifluoromethoxy)phenyl)amino)thiazole-4-carboxamide] | < 6.00 | < 6.00
O=C(Nc1nc(C(=O)Nc2nc3cc4c(cc3[nH]2)OC(F)(F)O4)cs1)c1ccc(Cl)cc1 [Compound 8, 2-(4-chlorobenzamido)-N-(2,2-difluoro-5H-[1,3]dioxolo[4′,5′:4,5]benzo[1,2-d]imidazol-6-yl)thiazole-4-carboxamide] | 6.00 to 6.70 | 6.00 to 6.70
O=C(Nc1nc2cc3c(cc2[nH]1)OC(F)(F)O3)c1csc(Br)n1 [Compound 55, 2-bromo-N-(2,2-difluoro-5H-[1,3]dioxolo[4′,5′:4,5]benzo[1,2-d]imidazol-6-yl)thiazole-4-carboxamide] | 6.00 to 6.70 | 6.00 to 6.70
O=C(Nc1nc2cc3c(cc2[nH]1)OC(F)(F)O3)c1csc(-n2c(=O)n(CCN3CCOCC3)c3ccccc32)n1 [Compound 98, N-(2,2-difluoro-5H-[1,3]dioxolo[4′,5′:4,5]benzo[1,2-d]imidazol-6-yl)-2-(3-(2-morpholinoethyl)-2-oxo-2,3-dihydro-1H-benzo[d]imidazol-1-yl)thiazole-4-carboxamide] | 6.00 to 6.70 | < 6.00
CC(=O)Nc1n[nH]c(C(=O)Nc2nc3cc4c(cc3[nH]2)OC(F)(F)O4)n1 [Compound 95, 3-acetamido-N-(2,2-difluoro-5H-[1,3]dioxolo[4′,5′:4,5]benzo[1,2-d]imidazol-6-yl)-1H-1,2,4-triazole-5-carboxamide] | < 6.00 | < 6.00
O=C(Nc1nc2cc3c(cc2[nH]1)OC(F)(F)O3)c1cccs1 [Compound 45, N-(2,2-difluoro-5H-[1,3]dioxolo[4′,5′:4,5]benzo[1,2-d]imidazol-6-yl)thiophene-2-carboxamide] | 6.00 to 6.70 | 6.00 to 6.70
O=C(Nc1nc(C(=O)Nc2nc3cc4c(cc3[nH]2)OC(F)(F)O4)ns1)c1ccc(Cl)cc1 [Compound 91] | > 6.70 | > 6.70
Nc1cccc(C(=O)Nc2nc3cc4c(cc3[nH]2)OC(F)(F)O4)c1 [Compound 87, 3-amino-N-(2,2-difluoro-5H-[1,3]dioxolo[4′,5′:4,5]benzo[1,2-d]imidazol-6-yl)benzamide] | > 6.70 | 6.00 to 6.70
Cc1nnsc1-c1nc(C(=O)Nc2nc3cc4c(cc3[nH]2)OC(F)(F)O4)cs1 [Compound 134, N-(2,2-difluoro-5H-[1,3]dioxolo[4′,5′:4,5]benzo[1,2-d]imidazol-6-yl)-2-(4-methyl-1,2,3-thiadiazol-5-yl)thiazole-4-carboxamide] | > 6.70 | > 6.70
COc1ccc2cc([C@H](C)C(=O)Nc3nc4cc5c(cc4[nH]3)OC(F)(F)O5)ccc2c1 [Compound 133, (S)-N-(2,2-difluoro-5H-[1,3]dioxolo[4′,5′:4,5]benzo[1,2-d]imidazol-6-yl)-2-(6-methoxymaphthalen-2-yl)propanamide] | > 6.70 | > 6.70
O=C(Nc1nc2cc3c(cc2[nH]1)OC(F)(F)O3)c1ccccc1 [Compound 49, N-(2,2-difluoro-5H-[1,3]dioxolo[4′,5′:4,5]benzo[1,2-d]imidazol-6-yl)benzamide] | > 6.70 | > 6.70
COc1ccc(C(=O)Nc2nc(C(=O)Nc3nc4cc5c(cc4[nH]3)OC(F)(F)O5)cs2)cc1 [Compound 69, N-(2,2-difluoro-5H-[1,3]dioxolo[4′,5′:4,5]benzo[1,2-d]imidazol-6-yl)-2-(4-methoxybenzamido)thiazole-4-carboxamide] | > 6.70 | 6.00 to 6.70
O=C(Nc1nc2cc3c(cc2[nH]1)OC(F)(F)O3)c1cccc(Cl)c1 [Compound 41, 3-chloro-N-(2,2-difluoro-5H-[1,3]dioxolo[4′,5′:4,5]benzo[1,2-d]imidazol-6-yl)benzamide] | > 6.70 | > 6.70
O=C(Nc1nc(C(=O)Nc2nc3cc4c(cc3[nH]2)OC(F)(F)O4)cs1)c1ccncc1 [Compound 21, N-(2,2-difluoro-5H-[1,3]dioxolo[4′,5′:4,5]benzo[1,2-d]imidazol-6-yl)-2-(isonicotinamido)thiazole-4-carboxamide] | > 6.70 | > 6.70
O=C(Nc1nc2cc3c(cc2[nH]1)OC(F)(F)O3)c1cnc(NC(=O)c2ccccc2OC(F)(F)F)o1 [Compound 48, N-(2,2-difluoro-5H-[1,3]dioxolo[4′,5′:4,5]benzo[1,2-d]imidazol-6-yl)-2-(2-(trifluoromethoxy)benzamido)oxazole-5-carboxamide] | > 6.70 | 6.00 to 6.70
O=C(Nc1nc2cc3c(cc2[nH]1)OC(F)(F)O3)c1cscn1 [Compound 44, N-(2,2-difluoro-5H-[1,3]dioxolo[4′,5′:4,5]benzo[1,2-d]imidazol-6-yl)thiazole-4-carboxamide] | 6.00 to 6.70 | 6.00 to 6.70

Continued, values first:

pIC50 [1] | pIC50 [2] | Structure (SMILES)
> 6.70 | 6.00 to 6.70 | O=C(Nc1nc2cc3c(cc2[nH]1)OC(F)(F)O3)c1ccsc1 [Compound 20, N-(2,2-difluoro-5H-[1,3]dioxolo[4′,5′:4,5]benzo[1,2-d]imidazol-6-yl)thiophene-3-carboxamide]
> 6.70 | 6.00 to 6.70 | O=C(Nc1nc2cc3c(cc2[nH]1)OC(F)(F)O3)c1csc(N2CCOCC2)n1 [Compound 37, N-(2,2-difluoro-5H-[1,3]dioxolo[4′,5′:4,5]benzo[1,2-d]imidazol-6-yl)-2-morpholinothiazole-4-carboxamide]
> 6.70 | > 6.70 | Cc1cc(-c2nc(C(=O)Nc3nc4cc5c(cc4[nH]3)OC(F)(F)O5)cs2)no1 [Compound 141, N-(2,2-difluoro-5H-[1,3]dioxolo[4′,5′:4,5]benzo[1,2-d]imidazol-6-yl)-2-(5-methylisoxazol-3-yl)thiazole-4-carboxamide]
> 6.70 | > 6.70 | O=C(Nc1nc(C(=O)Nc2nc3cc4c(cc3[nH]2)OC(F)(F)O4)ns1)c1cccc(Cl)c1 [Compound 57]
> 6.70 | 6.00 to 6.70 | O=C(Nc1nc2cc3c(cc2[nH]1)OC(F)(F)O3)c1ccncc1 [Compound 18, N-(2,2-difluoro-5H-[1,3]dioxolo[4′,5′:4,5]benzo[1,2-d]imidazol-6-yl)isonicotinamide]
> 6.70 | > 6.70 | O=C(Nc1nc2cc3c(cc2[nH]1)OC(F)(F)O3)c1cc([N+](=O)[O-])c[nH]1 [Compound 88, N-(2,2-difluoro-5H-[1,3]dioxolo[4′,5′:4,5]benzo[1,2-d]imidazol-6-yl)-4-nitro-1H-pyrrole-2-carboxamide]
> 6.70 | > 6.70 | O=C(Nc1nc(C(=O)Nc2nc3cc4c(cc3[nH]2)OC(F)(F)O4)ns1)c1ccc(F)cc1 [Compound 92, N-(2,2-difluoro-5H-[1,3]dioxolo[4′,5′:4,5]benzo[1,2-d]imidazol-6-yl)-5-(4-fluorobenzamido)-1,2,4-thiadiazole-3-carboxamide]
> 6.70 | > 6.70 | COc1ccc(OC)c(S(=O)(=O)Nc2nc(C(=O)Nc3nc4cc5c(cc4[nH]3)OC(F)(F)O5)cs2)c1 [Compound 19, N-(2,2-difluoro-5H-[1,3]dioxolo[4′,5′:4,5]benzo[1,2-d]imidazol-6-yl)-2-(2,5-dimethoxyphenylsulfonamido)thiazole-4-carboxamide]
> 6.70 | > 6.70 | CC(=O)c1c[nH]c(C(=O)Nc2nc3cc4c(cc3[nH]2)OC(F)(F)O4)c1 [Compound 104, 4-acetyl-N-(2,2-difluoro-5H-[1,3]dioxolo[4′,5′:4,5]benzo[1,2-d]imidazol-6-yl)-1H-pyrrole-2-carboxamide]
> 6.70 | 6.00 to 6.70 | Cc1occc1C(=O)Nc1nc2cc3c(cc2[nH]1)OC(F)(F)O3 [Compound 33, N-(2,2-difluoro-5H-[1,3]dioxolo[4′,5′:4,5]benzo[1,2-d]imidazol-6-yl)-2-methylfuran-3-carboxamide]
